Assay: Dissociation constant, pKa by capillary electrophoresis
Type: physicochemical
Settings: not given

Structure (SMILES)	pKa
CNS(=O)(=O)Cc1ccc2[nH]cc(CCN(C)C)c2c1	9.68
Clc1ccc2c(c1)C(N1CCNCC1)=Nc1ccccc1O2 [AMOXAPINE]	8.71
CN(C)CCC=C1c2ccccc2COc2ccccc21 [DOXEPIN]	9.37
CNCCCC12CCC(c3ccccc31)c1ccccc12 [MAPROTILINE]	10.6
CN1CCCCC1CCN1c2ccccc2Sc2ccc([S+](C)[O-])cc21 (stereo not given) [MESORIDAZINE]	9.61
CN1CCN2c3ncccc3Cc3ccccc3C2C1 (stereo not given) [MIRTAZAPINE]	7.79
Cc1cc2c(s1)Nc1ccccc1N=C2N1CCN(C)CC1 [OLANZAPINE]	8.5
CCCN1C[C@H](CSC)C[C@@H]2c3cccc4[nH]cc(c34)C[C@H]21 [PERGOLIDE]	8.78
OCCN1CCN(CCCN2c3ccccc3Sc3ccc(Cl)cc32)CC1 [PERPHENAZINE]	8.04
OCCOCCN1CCN(C2=Nc3ccccc3Sc3ccccc32)CC1 [QUETIAPINE]	6.91

Assay: Lipophilicity, log P by microemulsion electrokinetic chromatography
Type: physicochemical
Settings: not given

Structure (SMILES)	logP
OCCOCCN1CCN(C(c2ccccc2)c2ccc(Cl)cc2)CC1 (stereo not given) [HYDROXYZINE]	4
O=C(c1ccccc1)c1ccc2n1CCC2C(=O)O (stereo not given) [KETOROLAC]	1.68
COc1cc(NC(C)CCCN)c2ncccc2c1 (stereo not given) [PRIMAQUINE]	3.8
CSc1ccc2c(c1)N(CCC1CCCCN1C)c1ccccc1S2 (stereo not given) [THIORIDAZINE]	4.75

Same assay, conditions: read-out: logP

Structure (SMILES)	logP
CNS(=O)(=O)Cc1ccc2[nH]cc(CCN(C)C)c2c1	1.41
C=CCc1ccccc1OCC(O)CNC(C)C (stereo not given) [ALPRENOLOL]	3.57
NC12CC3CC(CC(C3)C1)C2 [AMANTADINE]	2.82
Clc1ccc2c(c1)C(N1CCNCC1)=Nc1ccccc1O2 [AMOXAPINE]	3.71
CCOC(=O)c1ccc(N)cc1 [BENZOCAINE]	1.79
c1ccc(-c2ccc(C(c3ccccc3)n3ccnc3)cc2)cc1 (stereo not given) [BIFONAZOLE]	5.56
CC(NC(C)(C)C)C(=O)c1cccc(Cl)c1 (stereo not given) [BUPROPION]	3.76
NC(=O)N1c2ccccc2C=Cc2ccccc21 [CARBAMAZEPINE]	2.29
CCCC(C)(COC(N)=O)COC(=O)NC(C)C (stereo not given) [CARISOPRODOL]	2.4
Clc1cccc(Cl)c1N=C1NCCN1 [CLONIDINE]	1.08
CN1CCN(C2=Nc3cc(Cl)ccc3Nc3ccccc32)CC1 [CLOZAPINE]	3.6
C[C@]12C[C@H](O)[C@H]3[C@@H](CCC4=CC(=O)CC[C@@]43C)[C@@H]1CC[C@@H]2C(=O)CO [CORTICOSTERONE]	2.9
CN(C)CCC=C1c2ccccc2C=Cc2ccccc21 [CYCLOBENZAPRINE]	4.81
CN(C)CCC=C1c2ccccc2COc2ccccc21 [DOXEPIN]	4.07
CCOC(=O)c1ncn2c1CN(C)C(=O)c1cc(F)ccc1-2 [FLUMAZENIL]	0.92
CC(C)n1c(/C=C/C(O)CC(O)CC(=O)O)c(-c2ccc(F)cc2)c2ccccc21 (stereo not given) [FLUVASTATIN]	3.92
O=C(CCCN1CCC(O)(c2ccc(Cl)cc2)CC1)c1ccc(F)cc1 [HALOPERIDOL]	3.53
C[C@]12CCC(=O)C=C1CC[C@@H]1[C@@H]2[C@@H](O)C[C@@]2(C)[C@H]1CC[C@]2(O)C(=O)CO [HYDROCORTISONE]	2.38
Nc1nnc(-c2cccc(Cl)c2Cl)c(N)n1 [LAMOTRIGINE]	1.6
CNCCCC12CCC(c3ccccc31)c1ccccc12 [MAPROTILINE]	4.67
COC(=O)Nc1nc2ccc(C(=O)c3ccccc3)cc2[nH]1 [MEBENDAZOLE]	2.26
CN1CCCCC1CCN1c2ccccc2Sc2ccc([S+](C)[O-])cc21 (stereo not given) [MESORIDAZINE]	4.26

Structure (SMILES)	logP
COC(=O)C(c1ccccc1)C1CCCCN1 (stereo not given) [METHYLPHENIDATE]	2.67
COCCc1ccc(OCC(O)CNC(C)C)cc1 (stereo not given) [METOPROLOL]	2.08
Cc1ncc2n1-c1ccc(Cl)cc1C(c1ccccc1F)=NC2 [MIDAZOLAM]	3.65
CN1CCN2c3ncccc3Cc3ccccc3C2C1 (stereo not given) [MIRTAZAPINE]	3.48
CN1CCOC(c2ccccc2)c2ccccc2C1 (stereo not given) [NEFOPAM]	3.2
CN1CCC[C@H]1c1cccnc1 [NICOTINE]	1.22
CNCCC=C1c2ccccc2CCc2ccccc21 [NORTRIPTYLINE]	4.36
Cc1cc2c(s1)Nc1ccccc1N=C2N1CCN(C)CC1 [OLANZAPINE]	3.21
COc1ccc(Cc2nccc3cc(OC)c(OC)cc23)cc1OC [PAPAVERINE]	2.73
Fc1ccc([C@@H]2CCNC[C@H]2COc2ccc3c(c2)OCO3)cc1 [PAROXETINE]	4.07
CCCN1C[C@H](CSC)C[C@@H]2c3cccc4[nH]cc(c34)C[C@H]21 [PERGOLIDE]	4.22
OCCN1CCN(CCCN2c3ccccc3Sc3ccc(Cl)cc32)CC1 [PERPHENAZINE]	3.83
CC(C)NCC(O)COc1cccc2[nH]ccc12 (stereo not given) [PINDOLOL]	1.71
CN1C(C(=O)Nc2ccccn2)=C(O)c2ccccc2S1(=O)=O [PIROXICAM]	1.45
CCN(CC)CCOC(=O)c1ccc(N)cc1 [PROCAINE]	2.18
OCCOCCN1CCN(C2=Nc3ccccc3Sc3ccccc32)CC1 [QUETIAPINE]	3.54
CNC(=C[N+](=O)[O-])NCCSCc1ccc(CN(C)C)o1 [RANITIDINE]	1.06
Cc1nc2n(c(=O)c1CCN1CCC(c3noc4cc(F)ccc34)CC1)CCCC2 [RISPERIDONE]	2.86
O=c1n(CCCN2CCN(c3cccc(Cl)c3)CC2)nc2ccccn12 [TRAZODONE]	2.92
COc1ccc(C(CN(C)C)C2(O)CCCCC2)cc1 (stereo not given) [VENLAFAXINE]	3.2
Cc1ccc(-c2nc3ccc(C)cn3c2CC(=O)N(C)C)cc1 [ZOLPIDEM]	2.2

Assay: Lipophilicity, log P of the compound
Type: physicochemical
Settings: octanol/water

Structure (SMILES)	logP
O=C(c1ccccc1)c1ccc2n1CCC2C(=O)O (stereo not given) [KETOROLAC]	1.26

Same assay, conditions: octanol/water; read-out: logP

Structure (SMILES)	logP
C=CCc1ccccc1OCC(O)CNC(C)C (stereo not given) [ALPRENOLOL]	2.99
CCOC(=O)c1ccc(N)cc1 [BENZOCAINE]	1.89
CC(NC(C)(C)C)C(=O)c1cccc(Cl)c1 (stereo not given) [BUPROPION]	3.21
NC(=O)N1c2ccccc2C=Cc2ccccc21 [CARBAMAZEPINE]	2.34
CN(C)CCCN1c2ccccc2Sc2ccc(Cl)cc21 [CHLORPROMAZINE]	4.74
Clc1cccc(Cl)c1N=C1NCCN1 [CLONIDINE]	1.57
CN1CCN(C2=Nc3cc(Cl)ccc3Nc3ccccc32)CC1 [CLOZAPINE]	4.1
C[C@]12C[C@H](O)[C@H]3[C@@H](CCC4=CC(=O)CC[C@@]43C)[C@@H]1CC[C@@H]2C(=O)CO [CORTICOSTERONE]	2.2
CN(C)CCC=C1c2ccccc2COc2ccccc21 [DOXEPIN]	4.29
CCOC(=O)c1ncn2c1CN(C)C(=O)c1cc(F)ccc1-2 [FLUMAZENIL]	1.64
O=C(CCCN1CCC(O)(c2ccc(Cl)cc2)CC1)c1ccc(F)cc1 [HALOPERIDOL]	3.67
C[C@]12CCC(=O)C=C1CC[C@@H]1[C@@H]2[C@@H](O)C[C@@]2(C)[C@H]1CC[C@]2(O)C(=O)CO [HYDROCORTISONE]	1.65
COC(=O)Nc1nc2ccc(C(=O)c3ccccc3)cc2[nH]1 [MEBENDAZOLE]	2.42
CN1CCOC(c2ccccc2)c2ccccc2C1 (stereo not given) [NEFOPAM]	3.02
CN1CCC[C@H]1c1cccnc1 [NICOTINE]	1.39
CNCCC=C1c2ccccc2CCc2ccccc21 [NORTRIPTYLINE]	4.39
CN1C(C(=O)Nc2ccccn2)=C(O)c2ccccc2S1(=O)=O [PIROXICAM]	1.68
COc1cc(NC(C)CCCN)c2ncccc2c1 (stereo not given) [PRIMAQUINE]	3
CCN(CC)CCOC(=O)c1ccc(N)cc1 [PROCAINE]	2.2
COc1ccc(CN(CCN(C)C)c2ccccn2)cc1 [PYRILAMINE]	3.12
CNC(=C[N+](=O)[O-])NCCSCc1ccc(CN(C)C)o1 [RANITIDINE]	1.28
CCCCNc1ccc(C(=O)OCCN(C)C)cc1 [TETRACAINE]	3.46

Assay: Fraction unbound in rat brain
Type: ADME, tissue-based
Settings: not given

Structure (SMILES)	fraction unbound
CNS(=O)(=O)Cc1ccc2[nH]cc(CCN(C)C)c2c1	0.724
NC12CC3CC(CC(C3)C1)C2 [AMANTADINE]	0.233
Clc1ccc2c(c1)C(N1CCNCC1)=Nc1ccccc1O2 [AMOXAPINE]	0.01
CN(C)CCC=C1c2ccccc2COc2ccccc21 [DOXEPIN]	0.025
CN1CCN(C2=Nc3ccccc3Oc3ccc(Cl)cc32)CC1 [LOXAPINE]	0.011
CNCCCC12CCC(c3ccccc31)c1ccccc12 [MAPROTILINE]	0.006
CN1CCCCC1CCN1c2ccccc2Sc2ccc([S+](C)[O-])cc21 (stereo not given) [MESORIDAZINE]	0.016
CCN(CC)CCNC(=O)c1cc(Cl)c(N)cc1OC [METOCLOPRAMIDE]	0.365
CN1CCN2c3ncccc3Cc3ccccc3C2C1 (stereo not given) [MIRTAZAPINE]	0.08
Cc1cc2c(s1)Nc1ccccc1N=C2N1CCN(C)CC1 [OLANZAPINE]	0.034
CCCN1C[C@H](CSC)C[C@@H]2c3cccc4[nH]cc(c34)C[C@H]21 [PERGOLIDE]	0.027
OCCN1CCN(CCCN2c3ccccc3Sc3ccc(Cl)cc32)CC1 [PERPHENAZINE]	0.004
OCCOCCN1CCN(C2=Nc3ccccc3Sc3ccccc32)CC1 [QUETIAPINE]	0.025
Nc1c2c(nc3ccccc13)CCCC2 [TACRINE]	0.124
CSc1ccc2c(c1)N(CCC1CCCCN1C)c1ccccc1S2 (stereo not given) [THIORIDAZINE]	0.001

Assay: Dissociation constant, pKa by mass spectrometry
Type: physicochemical
Settings: not given

Structure (SMILES)	pKa
Clc1ccc2c(c1)C(N1CCNCC1)=Nc1ccccc1O2 [AMOXAPINE]	3.38
CN1CCN2c3ncccc3Cc3ccccc3C2C1 (stereo not given) [MIRTAZAPINE]	3.59
Cc1cc2c(s1)Nc1ccccc1N=C2N1CCN(C)CC1 [OLANZAPINE]	4.66
OCCN1CCN(CCCN2c3ccccc3Sc3ccc(Cl)cc32)CC1 [PERPHENAZINE]	3.72
OCCOCCN1CCN(C2=Nc3ccccc3Sc3ccccc32)CC1 [QUETIAPINE]	3.64

Assay: Lipophilicity, log D at pH 7.4 by liquid chromatography
Type: physicochemical
Settings: buffer

Structure (SMILES)	logD
CNS(=O)(=O)Cc1ccc2[nH]cc(CCN(C)C)c2c1	< 0
NC12CC3CC(CC(C3)C1)C2 [AMANTADINE]	< 0
Clc1ccc2c(c1)C(N1CCNCC1)=Nc1ccccc1O2 [AMOXAPINE]	2.4
CN1CCN(C2=Nc3cc(Cl)ccc3Nc3ccccc32)CC1 [CLOZAPINE]	3.48
CN(C)CCC=C1c2ccccc2COc2ccccc21 [DOXEPIN]	2.3
OCCOCCN1CCN(C(c2ccccc2)c2ccc(Cl)cc2)CC1 (stereo not given) [HYDROXYZINE]	3.6
Nc1nnc(-c2cccc(Cl)c2Cl)c(N)n1 [LAMOTRIGINE]	< 0
CN1CCCCC1CCN1c2ccccc2Sc2ccc([S+](C)[O-])cc21 (stereo not given) [MESORIDAZINE]	1.7
COC(=O)C(c1ccccc1)C1CCCCN1 (stereo not given) [METHYLPHENIDATE]	0.4
Cc1ncc2n1-c1ccc(Cl)cc1C(c1ccccc1F)=NC2 [MIDAZOLAM]	3.38
CN1CCN2c3ncccc3Cc3ccccc3C2C1 (stereo not given) [MIRTAZAPINE]	2.3
CNCCC=C1c2ccccc2CCc2ccccc21 [NORTRIPTYLINE]	2.8
CCCN1C[C@H](CSC)C[C@@H]2c3cccc4[nH]cc(c34)C[C@H]21 [PERGOLIDE]	3
OCCN1CCN(CCCN2c3ccccc3Sc3ccc(Cl)cc32)CC1 [PERPHENAZINE]	4.1
OCCOCCN1CCN(C2=Nc3ccccc3Sc3ccccc32)CC1 [QUETIAPINE]	3.4
Cc1nc2n(c(=O)c1CCN1CCC(c3noc4cc(F)ccc34)CC1)CCCC2 [RISPERIDONE]	1.71
CSc1ccc2c(c1)N(CCC1CCCCN1C)c1ccccc1S2 (stereo not given) [THIORIDAZINE]	4.4
O=c1n(CCCN2CCN(c3cccc(Cl)c3)CC2)nc2ccccn12 [TRAZODONE]	2.99
COc1ccc(C(CN(C)C)C2(O)CCCCC2)cc1 (stereo not given) [VENLAFAXINE]	1
Cc1ccc(-c2nc3ccc(C)cn3c2CC(=O)N(C)C)cc1 [ZOLPIDEM]	2.3
